According to ChEMBL document CHEMBL5500393, “Discovery and Optimization of Novel SaFabI Inhibitors as Specific Therapeutic Agents for MRSA Infection” (J Med Chem, 2024):
Values after ≈ are worked out from the molar mass of the structure shown. Active and inactive are the calls of the source. No cut-off for these calls is given here.

Columns and labels:
[1] = target: T1, Enoyl-[acyl-carrier-protein] reductase [NADPH] FabI (Staphylococcus aureus) (UniProt Q6GI75); assay: Inhibition of N-terminal his 6 tagged Staphylococcus aureus Fabi (1 to […] residues) expressed in Escherichia coli BL21 at 10 uM incubated for 30 mins in presence of NADPH by fluorescence based microplate reader analysis relative to control
T1 sequence (whole entry): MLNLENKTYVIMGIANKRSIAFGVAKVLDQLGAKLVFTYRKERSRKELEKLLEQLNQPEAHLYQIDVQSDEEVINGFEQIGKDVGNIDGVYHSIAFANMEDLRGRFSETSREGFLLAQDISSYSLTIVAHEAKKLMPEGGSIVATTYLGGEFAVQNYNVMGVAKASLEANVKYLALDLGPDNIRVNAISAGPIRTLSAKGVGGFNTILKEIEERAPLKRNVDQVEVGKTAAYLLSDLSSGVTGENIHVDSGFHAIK

[2] = target: T1, Enoyl-[acyl-carrier-protein] reductase [NADPH] FabI (Staphylococcus aureus); assay: Inhibition of N-terminal his 6 tagged Staphylococcus aureus Fabi (1 to […] residues) expressed in Escherichia coli BL21 at 1 uM incubated for 30 mins in presence of NADPH by fluorescence based microplate reader analysis relative to control
[3] = target: T2, Enoyl-[acyl-carrier-protein] reductase [NADPH] FabI (Staphylococcus aureus, UniProt Q6GI75); assay: Inhibition of N-terminal his 6 tagged Staphylococcus aureus Fabi (1 to […] residues) expressed in Escherichia coli BL21 incubated for 30 mins in presence of NADPH by fluorescence based microplate reader analysis
T2 sequence (Q6GI75 whole entry): T1 sequence (whole entry)

[4] = Inhibition of N-terminal his 6 tagged Escherichia coli Fabi (1 to 789 residues) expressed in Escherichia coli BL21 incubated for 30 mins in presence of NADH by fluorescence based microplate reader analysis
[5] = Inhibition of N-terminal his 6 tagged Acinetobacter baumannii Fabi (1 to 804 residues) expressed in Escherichia coli BL21 incubated for 30 mins in presence of NADH by fluorescence based microplate reader analysis
Staphylococcus aureus [6] = assay: Antimicrobial activity against […] Staphylococcus aureus ATCC33591 measured after 24 hrs by CLSI protocol based microdilution method; type: functional
Staphylococcus aureus [7] = assay: Antimicrobial activity against […] Staphylococcus aureus ATCC43300 measured after 24 hrs by CLSI protocol based microdilution method; type: functional
Staphylococcus aureus [8] = assay: Antimicrobial activity against […] Staphylococcus aureus USA300 measured after 24 hrs by CLSI protocol based microdilution method; type: functional
Staphylococcus aureus [9] = assay: Antimicrobial activity against […] Staphylococcus aureus NRS271 measured after 24 hrs by CLSI protocol based microdilution method; type: functional
Staphylococcus aureus [10] = assay: Antimicrobial activity against methicillin-susceptible Staphylococcus aureus ATCC29213 measured after 24 hrs by CLSI protocol based microdilution method; type: functional
Staphylococcus aureus [11] = assay: Antimicrobial activity against methicillin-susceptible Staphylococcus aureus ATCC25923 measured after 24 hrs by CLSI protocol based microdilution method; type: functional
Enterococcus faecium = assay: Antimicrobial activity against Enterococcus faecium ATCC19434 measured after 24 hrs by CLSI protocol based microdilution method; type: functional
Enterococcus faecalis = assay: Antimicrobial activity against Enterococcus faecalis ATCC29212 measured after 24 hrs by CLSI protocol based microdilution method; type: functional
Pseudomonas aeruginosa = assay: Antimicrobial activity against Pseudomonas aeruginosa PAO1 measured after 24 hrs by CLSI protocol based microdilution method; type: functional
Escherichia coli = assay: Antimicrobial activity against Escherichia coli ATCC25922 measured after 24 hrs by CLSI protocol based microdilution method; type: functional
Acinetobacter baumannii = assay: Antimicrobial activity against Acinetobacter baumannii ATCC19606 measured after 24 hrs by CLSI protocol based microdilution method; type: functional
Candida albicans = assay: Antimicrobial activity against Candida albicans SC5314 measured after 48 hrs by CLSI protocol based microdilution method; type: functional
[12] = Cytotoxicity against HEK293 cells assessed as survival rate at 400 uM measured after 48 hrs by CCK-8 method relative to control; type: toxicity, cell-based; conditions: human, read-out: Survival
HepG2 [13] = assay: Cytotoxicity against human HepG2 cells assessed as survival rate at 400 uM measured after 48 hrs by CCK-8 method relative to control; type: functional; conditions: read-out: Survival
[14] = Cytotoxicity against HEK293 cells assessed as survival rate at 800 uM measured after 48 hrs by CCK-8 method relative to control; type: toxicity, cell-based; conditions: human, read-out: Survival
HepG2 [15] = assay: Cytotoxicity against human HepG2 cells assessed as survival rate at 800 uM measured after 48 hrs by CCK-8 method relative to control; type: functional; conditions: read-out: Survival
[16] = Hemolytic activity in sheep erythrocytes assessed as hemolysis at 64 ug/ml incubated for 1 hr by microplate reader based analysis relative to control; type: toxicity, cell-based, Ovis aries, Erythrocyte; conditions: at 64 µg/mL, read-out: Activity
[17] = Hemolytic activity in sheep erythrocytes assessed as hemolysis at 128 ug/ml incubated for 1 hr by microplate reader based analysis relative to control; type: toxicity, cell-based, Ovis aries, Erythrocyte; conditions: at 128 µg/mL, read-out: Activity
[18] = Hemolytic activity in sheep erythrocytes assessed as hemolysis at 256 ug/ml incubated for 1 hr by microplate reader based analysis relative to control; type: toxicity, cell-based, Ovis aries, Erythrocyte; conditions: at 256 µg/mL, read-out: Activity
[19] = Hemolytic activity in sheep erythrocytes assessed as hemolysis incubated for 1 hr by microplate reader based analysis; type: toxicity, cell-based, Ovis aries, Erythrocyte
Staphylococcus aureus [20] = assay: Antimicrobial activity against Staphylococcus aureus measured after 24 hrs by CLSI protocol based microdilution method; type: functional
[21] = Selectivity index, ratio of HC50 for sheep erythrocytes to MIC for Staphylococcus aureus; type: toxicity; conditions: read-out: Selectivity Index
[22] = target: T1, Enoyl-[acyl-carrier-protein] reductase [NADPH] FabI (Staphylococcus aureus); assay: Binding affinity to N-terminal his 6 tagged Staphylococcus aureus Fabi (1 to […] residues) expressed in Escherichia coli BL21 assessed as change in melting temperature at 80 uM incubated for 20 mins in presence of NADPH by differential scanning fluorescence assay
Staphylococcus aureus [23] = assay: In vivo antibacterial activity against methicilin-resistant Staphylococcus aureus ATCC33591 infected in BALB/c mouse skin infection model assessed as reduction in skin lesions at 10 mg/kg administered daily for 4 days (reference value: 48.3 mm2); type: functional; conditions: time 4 day
Staphylococcus aureus [24] = assay: In vivo antibacterial activity against methicilin-resistant Staphylococcus aureus ATCC33591 infected in BALB/c mouse skin infection model assessed as log reduction in bacterial count at 10 mg/kg administered daily for 4 days; type: functional; conditions: time 4 day
Staphylococcus aureus [25] = assay: In vivo antibacterial activity against methicilin-resistant Staphylococcus aureus ATCC33591 infected in BALB/c mouse skin infection model assessed as normal morphology at 10 mg/kg administered daily for 4 days by H and E staining based analysis; type: functional, organism-based; conditions: time 4.0 day
Staphylococcus aureus [26] = assay: In vivo antibacterial activity against methicilin-resistant Staphylococcus aureus ATCC33591 infected in BALB/c mouse skin infection model assessed as normal skin structure at 10 mg/kg administered daily for 4 days by H and E staining based analysis; type: functional, organism-based; conditions: time 4.0 day
Staphylococcus aureus [27] = assay: Antimicrobial activity against […] Staphylococcus aureus ATCC33591 assessed as frequency of spontaneous resistance at 4 times MIC measured after 48 hrs by; type: functional
Staphylococcus aureus [28] = assay: Antimicrobial activity against […] Staphylococcus aureus ATCC33591 assessed as frequency of spontaneous resistance at 8 times MIC measured after 48 hrs by; type: functional
Staphylococcus aureus [29] = assay: Antimicrobial activity against […] Staphylococcus aureus ATCC33591 assessed as frequency of spontaneous resistance at 16 times MIC measured after 48 hrs by; type: functional
[30] = target: T1, Enoyl-[acyl-carrier-protein] reductase [NADPH] FabI (Staphylococcus aureus); assay: Inhibition of N-terminal his 6 tagged Staphylococcus aureus Fabi (1 to […] residues) expressed in Escherichia coli BL21 at 2.5 uM incubated for 30 mins in presence of NADPH by fluorescence based microplate reader analysis relative to control
Staphylococcus aureus [31] = assay: Antimicrobial activity against […] Staphylococcus aureus ATCC33591 assessed as reduction in DNA content measured after 4 hrs by microplate reader based analysis; type: functional

Compound	inhibition [1]	inhibition [2]	IC50 [3]	MIC (Staphylococcus aureus [6])	MIC (Staphylococcus aureus [7])	MIC (Staphylococcus aureus [8])	MIC (Staphylococcus aureus [9])	MIC (Staphylococcus aureus [10])	MIC (Staphylococcus aureus [11])	MIC (Enterococcus faecium)	MIC (Enterococcus faecalis)	MIC (Pseudomonas aeruginosa)	MIC (Escherichia coli)	MIC (Acinetobacter baumannii)	MIC (Candida albicans)	further results
Cn1c(C2CC(=O)N(c3cccc(Cl)c3Cl)C2)nc2ccccc21 (stereo not given)	98.8%	73.7%	495 nM	4 µg/mL (≈ 11.1 µM)	2 µg/mL (≈ 5.55 µM)	2 µg/mL (≈ 5.55 µM)	4 µg/mL (≈ 11.1 µM)	2 µg/mL (≈ 5.55 µM)	2 µg/mL (≈ 5.55 µM)	> 32 µg/mL	> 32 µg/mL	> 32 µg/mL	> 32 µg/mL	> 32 µg/mL	> 32 µg/mL	IC50 [4]: 35.9 nM; IC50 [5]: 266 nM; viability at 48 h, 400 µM [12]: > 70%; viability at 400 µM (HepG2 [13]): > 70%; viability at 48 h, 800 µM [14]: > 75%; viability at 800 µM (HepG2 [15]): > 75%; hemolysis at 1 h, 64 ug/ml [16]: 2.4%; hemolysis at 1 h, 128 ug/ml [17]: 4.3%; hemolysis at 1 h, 256 ug/ml [18]: 7.5%; HC50 at 1 h [19]: > 256 µg/mL; MIC (Staphylococcus aureus [20]): 2 µg/mL (≈ 5.55 µM); selectivity ratio [21]: > 64
Cc1c(Br)cccc1N1C[C@@H](c2nc3ccccc3n2C)CC1=O		> 85%	94 nM	0.25 µg/mL (≈ 0.651 µM)	0.5 µg/mL (≈ 1.3 µM)	0.5 µg/mL (≈ 1.3 µM)	1 µg/mL (≈ 2.6 µM)	0.5 µg/mL (≈ 1.3 µM)	0.5 µg/mL (≈ 1.3 µM)							ΔTm [22]: 14.3 °C; Activity (Staphylococcus aureus [23]): 16.1 mm2; log(activity) (Staphylococcus aureus [24]): 6.8; Activity (Staphylococcus aureus [25]): Active; Activity (Staphylococcus aureus [26]): Active; Activity (Staphylococcus aureus [27]): 3.8 10^-10No_unit; Activity (Staphylococcus aureus [28]): <2.6 10^-10No_unit; Activity (Staphylococcus aureus [29]): <2.6 10^-10No_unit
Cc1cccc(N2CC(c3nc4ccccc4n3C)CC2=O)c1C (stereo not given)	95.7%	53.1%	977 nM	8 µg/mL (≈ 25 µM)	16 µg/mL (≈ 50.1 µM)	16 µg/mL (≈ 50.1 µM)	16 µg/mL (≈ 50.1 µM)	8 µg/mL (≈ 25 µM)	8 µg/mL (≈ 25 µM)	> 32 µg/mL	> 32 µg/mL	> 32 µg/mL	> 32 µg/mL	> 32 µg/mL	> 32 µg/mL	inhibition [30]: 76.8%
C[C@H]1COc2c(N3CCN(C)CC3)c(F)cc3c(=O)c(C(=O)O)cn1c23 [LEVOFLOXACIN ANHYDROUS]																MIC (Staphylococcus aureus [31]): 1 µg/mL (≈ 2.77 µM)
